# Measurements: US9303045B2, “5-HT3 receptor antagonists” (Takeda Pharmaceutical Company Limited, priority 2013, dated 2016)
# pIC50: −log10 of the molar value. Where a name gives a salt, the structure may show the parent alone.
# Target: 5HT3a receptor expressed in HEK-293T cells (Homo sapiens (Human), UniProt P46098)
# Experiment: Inhibition of Ca flux activity of 5HT3 in vitro assay
# Format: cell-based
# Conditions: calcium flux, 5HT 216 nM, approximate values
# Experimental: Inhibition of Ca Flux Activity of 5HT3 In Vitro Assay
# The 5HT3 antagonist activity of the compounds of the invention was determined by measuring the ability of the compounds to inhibit the calcium flux activity of […] receptor expressed in HEK-293T cells. HEK-293T cells were transfected with the 5HT3a expression construct using Xtreme Gene 9 (Roche) in 150 mm tissue culture treated plates and incubated for 24 hours at 37° C. Cells were then split and plated at a density of 60K cells/well in poly-lysine coated, black 96-well plates with clear bottoms (BD BioSciences) and incubated overnight at 37° C. Growth media was removed and cells loaded with 200 uL calcium indicator dye in HBSS containing 20 mM HEPES (Calcium 5 Assay kit, Molecular Devices) and incubated at 37° C. for 1 hour. While cells were incubating, the 10× antagonist and agonist/antagonist addition plates were made. For 10× antagonist plate: half log serial dilutions (final concentrations range from 10^−7 through 10^−10 with the bottom well a negative, no ligand control) were made from test compounds in DMSO at a 1000× concentration and then diluted to 10× in HBSS/20 mM HEPES. For addition plate: 5HT was diluted to 100× in HBSS/20 mM HEPES (final concentration in the assay—216 nM) and 15 uL was added to each well of the addition plate, 15 uL of 10× compound was also added to the addition plate, and finally 120 uL of HBSS/20 mM HEPES (for a total of 150 uL). Cells were then removed from the incubator and equilibrated to room temperature for 10 minutes, then 22.5 uL of 10× test compounds were added in triplicate to the plates and incubated at room temperature for 10 minutes (Tropisetron was used as a positive control in every assay). Test plate and addition plate were loaded into the FlexStation III (Molecular Devices), and using the fluidics, 22.5 uL compound additions were made (at t=˜17 seconds), and fluorescence was measured for 90 seconds, reading every 2.2 seconds. Data sets were analyzed as max minus min using Software Max Pro (Molecular Devices). IC50 curves were generated using non-linear regression in GraphPad Prism.
# 5HT3a receptor expressed in HEK-293T cells, sequence (P46098 24-478): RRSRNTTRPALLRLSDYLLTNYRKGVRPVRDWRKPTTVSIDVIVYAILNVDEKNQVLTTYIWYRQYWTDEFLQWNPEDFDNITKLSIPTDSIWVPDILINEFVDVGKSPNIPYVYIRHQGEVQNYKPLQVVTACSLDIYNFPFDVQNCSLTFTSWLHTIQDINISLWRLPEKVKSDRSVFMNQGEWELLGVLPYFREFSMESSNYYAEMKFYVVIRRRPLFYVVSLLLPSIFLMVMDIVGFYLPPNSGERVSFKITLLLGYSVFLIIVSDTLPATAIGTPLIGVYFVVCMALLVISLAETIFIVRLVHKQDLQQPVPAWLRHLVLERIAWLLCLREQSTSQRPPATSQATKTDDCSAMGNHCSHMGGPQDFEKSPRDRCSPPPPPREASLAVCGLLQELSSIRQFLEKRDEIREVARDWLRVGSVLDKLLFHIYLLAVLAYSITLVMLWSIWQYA
row,Molecule,pIC50
1,"CN1[C@@H]2CC[C@H]1CC(OC(=O)c1c3n(c4ccccc14)CCCO3)C2 (stereo partly drawn) [Example 85, (1R,3R,5S)-8-methyl-8-azabicyclo[3.2.1]octan-3-yl 3,4-dihydro-2H-[1,3]oxazino[3,2-a]indole-10-carboxylate, 2,2,2-trifluoroacetate]",8.98
2,"N#Cc1cccc(-n2cc(C(=O)OC3CC4COCC(C3)N4)c3ccccc32)c1 [Example 172, (1R,5S,7s)-3-oxa-9-azabicyclo[3.3.1]nonan-7-yl 1-(3-cyanophenyl)-1H-indole-3-carboxylate, 2,2,2-trifluoroacetic acid salt]",8.54
3,"CN1C2CCCC1CC(OC(=O)c1cn(CC(F)F)c3ncccc13)C2 [Example 61, (1R,3R,5S)-9-methyl-9-azabicyclo[3.3.1]nonan-3-yl 1-(2,2-difluoroethyl)-1H-pyrrolo[2,3-b]pyridine-3-carboxylate, 2,2,2-trifluoroacetate]",9.00
4,"Cc1c(C(=O)OC2C[C@H]3CC[C@@H](C2)N3C)c2ccccc2n1CC(F)F (stereo partly drawn) [Example 73, (1R,3R,5S)-8-methyl-8-azabicyclo[3.2.1]octan-3-yl 1-(2,2-difluoroethyl)-2-methyl-1H-indole-3-carboxylate, 2,2,2-trifluoroacetate]",8.50
5,"(1R,3R,5S)-8-methyl-8-azabicyclo[3.2.1]octan-3-yl 3,4-dihydro-2H-[1,3]oxazino[3,2-a]indole-10-carboxylate 2,2,2-trifluoroacetate [Example 19]",8.11
6,"CN1C2COCC1CC(NC(=O)c1cn(C(C)(C)C(F)(F)F)c3ncccc13)C2 [Example 69, N-((1R,5S,7S)-9-methyl-3-oxa-9-azabicyclo[3.3.1]nonan-7-yl)-1-(1,1,1-trifluoro-2-methylpropan-2-yl)-1H-pyrrolo[2,3-b]pyridine-3-carboxamide, 2,2,2-trifluoroacetate]",8.97
7,"5-fluoro-N-((1R,5S,7S)-9-methyl-d3-3-oxa-9-azabicyclo[3.3.1]nonan-7-yl)-1-(2,2,2-trifluoroethyl)-1H-pyrrolo[2,3-b]pyridine-3-carboxamide 2,2,2-trifluoroacetate [Example 18]",8.39
8,"CN1[C@@H]2COC[C@H]1CC(NC(=O)c1cn(-c3ncccn3)c3ccccc13)C2 (stereo partly drawn) [Example 122, N-((1R,5S,7S)-9-methyl-d3-3-oxa-9-azabicyclo[3.3.1]nonan-7-yl)-1-(pyrimidin-2-yl)-1H-indole-3-carboxamide, 2,2,2-trifluoroacetate]",9.00
9,"CN1[C@@H]2COC[C@H]1CC(OC(=O)c1cn(CC(F)(F)F)c3ncccc13)C2 (stereo partly drawn) [Example 49, (1R,5S,7S)-9-methyl-3-oxa-9-azabicyclo[3.3.1]nonan-7-yl 1-(2,2,2-trifluoroethyl)-1H-pyrrolo[2,3-b]pyridine-3-carboxylate, 2,2,2-trifluoroacetate]",8.74
10,"CN1[C@@H]2COC[C@H]1CC(OC(=O)c1cn(CC(F)F)c3ccc(F)cc13)C2 (stereo partly drawn) [Example 58, (1R,5S,7S)-9-methyl-3-oxa-9-azabicyclo[3.3.1]nonan-7-yl 1-(2,2-difluoroethyl)-5-fluoro-1H-indole-3-carboxylate, 2,2,2-trifluoroacetate]",9.62
11,CN1[C@@H]2COC[C@H]1CC(NC(=O)c1cn(CC(F)(F)F)c3ccccc13)C2 (some centres unmarked),9.17
12,"CN1C2COCC1CC(NC(=O)c1cn(-c3nccs3)c3ncc(F)cc13)C2 [Example 162, 5-fluoro-N-((1R,5S,7s)-9-methyl-3-oxa-9-azabicyclo[3.3.1]nonan-7-yl)-1-(thiazol-2-yl)-1H-pyrrolo[2,3-b]pyridine-3-carboxamide, 2,2,2-trifluoroacetic acid salt]",8.74
13,"CN1[C@@H]2COC[C@H]1CC(NC(=O)c1cn(CC(F)F)c3ccc(F)cc13)C2 (stereo partly drawn) [Example 113, 1-(2,2-difluoroethyl)-5-fluoro-N-((1R,5S,7S)-9-methyl-d3-3-oxa-9-azabicyclo[3.3.1]nonan-7-yl)-1H-indole-3-carboxamide, 2,2,2-trifluoroacetate]",9.64
14,"CN1[C@@H]2CC[C@H]1CC(OC(=O)c1cn(CC(F)(F)F)c3ncccc13)C2 (stereo partly drawn) [Example 41, (1R,3R,5S)-8-methyl-8-azabicyclo[3.2.1]octan-3-yl 1-(2,2,2-trifluoroethyl)-1H-pyrrolo[2,3-b]pyridine-3-carboxylate, 2,2,2-trifluoroacetate]",8.25
15,"CN1[C@@H]2COC[C@H]1CC(NC(=O)c1nn(CC(F)F)c3ncccc13)C2 (stereo partly drawn) [Example 66, 1-(2,2-difluoroethyl)-N-((1R,5S,7S)-9-methyl-3-oxa-9-azabicyclo[3.3.1]nonan-7-yl)-1H-pyrazolo[3,4-b]pyridine-3-carboxamide, 2,2,2-trifluoroacetate]",8.97
16,"CN1C2COCC1CC(NC(=O)c1cn(-c3ccccc3)c3ccccc13)C2 [Example 174, N-((1R,5S,7s)-9-methyl-3-oxa-9-azabicyclo[3.3.1]nonan-7-yl)-1-phenyl-1H-indole-3-carboxamide, 2,2,2-trifluoroacetic acid salt]",8.69
17,"CN1[C@@H]2CCC[C@H]1CC(OC(=O)c1cn(CC(F)(F)F)c3ccc(F)cc13)C2 (stereo partly drawn) [Example 89, (1R,3R,5S)-9-methyl-9-azabicyclo[3.3.1]nonan-3-yl 5-fluoro-1-(2,2,2-trifluoroethyl)-1H-indole-3-carboxylate, 2,2,2-trifluoroacetate]",9.18
18,"CC(C)S(=O)(=O)n1cc(C(=O)NC2CC3COCC(C2)N3C)c2cc(F)ccc21 [Example 93, 5-fluoro-1-(isopropylsulfonyl)-N-((1R,5S,7S)-9-methyl-3-oxa-9-azabicyclo[3.3.1]nonan-7-yl)-1H-indole-3-carboxamide, 2,2,2-trifluoroacetate]",8.86
19,"O=C(OC1C[C@H]2CC[C@@H](C1)N2)c1cn(CC(F)F)c2ccccc12 (stereo partly drawn) [Example 45, (1R,3R,5S)-8-azabicyclo[3.2.1]octan-3-yl 1-(2,2-difluoroethyl)-1H-indole-3-carboxylate, 2,2,2-trifluoroacetate]",8.51
20,"O=C(N[C@@H]1CN2CCC1CC2)c1cn(CC(F)F)c2ncccc12 [Example 116, (S)-1-(2,2-difluoroethyl)-N-(quinuclidin-3-yl)-1H-pyrrolo[2,3-b]pyridine-3-carboxamide, 2,2,2-trifluoroacetate]",< 6.00
21,"(1R,5S,7S)-9-methyl-3-oxa-9-azabicyclo[3.3.1]nonan-7-yl 1-(5-fluoropyrazin-2-yl)-1H-indole-3-carboxylate, 2,2,2-trifluoroacetic acid salt [Example 33]",7.84
22,"CN1[C@@H]2CC[C@H]1CC(OC(=O)c1cn([C@@H]3CCOC3)c3ccccc13)C2 (stereo partly drawn) [Example 83, (1R,3R,5S)-8-methyl-8-azabicyclo[3.2.1]octan-3-yl 1-((R)-tetrahydrofuran-3-yl)-1H-indole-3-carboxylate, 2,2,2-trifluoroacetate]",8.98
23,"O=C(OC1C[C@H]2COC[C@@H](C1)N2)c1cn(-c2nccs2)c2ccccc12 (stereo partly drawn) [Example 128, (1R,5S,7S)-3-oxa-9-azabicyclo[3.3.1]nonan-7-yl 1-(thiazol-2-yl)-1H-indole-3-carboxamide, 2,2,2-trifluoroacetate]",8.67
24,"CN1C2COCC1CC(NC(=O)c1cn(-c3nccs3)c3ccccc13)C2 [Example 118, N-((1R,5S,7S)-9-methyl-3-oxa-9-azabicyclo[3.3.1]nonan-7-yl)-1-(thiazol-2-yl)-1H-indole-3-carboxamide, 2,2,2-trifluoroacetate]",9.07
25,"CN1C2COCC1CC(NC(=O)c1cn(CC(F)(F)F)c3ccc(F)cc13)C2 [Example 35, 5-fluoro-N-((1R,5S,7S)-9-methyl-3-oxa-9-azabicyclo[3.3.1]nonan-7-yl)-1-(2,2,2-trifluoroethyl)-1H-indole-3-carboxylate, 2,2,2-trifluoroacetate]",9.27
26,"CN1C2COCC1CC(NC(=O)c1cn(-c3cncs3)c3ncc(F)cc13)C2 [Example 164, 5-fluoro-N-((1R,5S,7s)-9-methyl-3-oxa-9-azabicyclo[3.3.1]nonan-7-yl)-1-(thiazol-5-yl)-1H-pyrrolo[2,3-b]pyridine-3-carboxamide, 2,2,2-trifluoroacetic acid salt]",8.93
27,"(1R,5S,7s)-3-oxa-9- azabicyclo[3.3.1]nonan- 7-yl 1-(isothiazol-5-yl)- 1H-indole-3- carboxamide, 2,2,2- trifluoroacetic acid salt [Example 155]",8.90
28,"CN1[C@@H]2COC[C@H]1CC(NC(=O)c1cn(-c3cccnn3)c3ccccc13)C2 (stereo partly drawn) [Example 117, N-((1R,5S,7S)-9-methyl-3-oxa-9-azabicyclo[3.3.1]nonan-7-yl)-1-(pyridazin-3-yl)-1H-indole-3-carboxamide, 2,2,2-trifluoroacetate]",9.41
29,"(1R,5S,7S)-3-Oxa-9-azabicyclo[3.3.1]nonan-7-yl 1-(2,2-difluoroethyl)-5-fluoro-1H-indole-3-carboxylate 2,2,2-trifluoroacetic acid [Example 13]",9.03
